Results taken from patent publication US12441703B2, “Carboxamides as modulators of sodium channels” (VERTEX PHARMACEUTICALS INCORPORATED, priority 2019, dated 2025).

molecular target: human NaV 1.8 (Homo sapiens, UniProt Q9Y5Y9); experiment: E-VIPR assay for detecting and measuring NaV inhibition properties; type: cell-based; settings: E-VIPR assay conducted in the presence of human serum; HEK cells expressing truncated human NaV 1.8; read-out: IC50
Excerpt: Sodium ion channels are voltage-dependent proteins that can be activated by inducing membrane voltage changes by applying electric fields. The electrical stimulation instrument and methods of use, referred to as E-VIPR, are described in International Publication No. WO 2002/008748 A3 and C.-J. Huang et al. Characterization of voltage-gated sodium channel blockers by electrical stimulation and fluorescence detection of membrane potential, 24 Nature Biotech. 439-46 (2006), both of which are incorporated by reference in their entirety. The instrument comprises a microtiter plate handler, an optical system for exciting the coumarin dye while simultaneously recording the coumarin and oxonol emissions, a waveform generator, a current- or voltage-controlled amplifier, and parallel electrode pairs that are inserted into assay plate wells. Under integrated computer control, this instrument passes user-programmed electrical stimulus protocols to cells within the wells of the microtiter plate.
16-20 hours prior to running the assay on E-VIPR, HEK cells expressing a truncated form of human NaV 1.8 with full channel activity were seeded into microtiter 384-well plates, pre-coated with matrigel, at a density of 25,000 cells per well. 2.5-5% KIR2.1 Bacmam virus was added to the final cell suspension before seeding into cell plates. HEK cells were grown in Dulbecco's Modified Eagle's Medium (DMEM) supplemented with 10% FBS (Fetal Bovine Serum, qualified; Sigma #F4135), 1% NEAA (Non-Essential Amino Acids, Gibco #11140), 1% HEPES (Gibco #15630), 1% Pen-Strep (Penicillin-Streptomycin; Gibco #15140) and 5 μg/ml Blasticidin (Gibco #R210-01). Cells were expanded in vented cap cell culture flasks, with 90-95% humidity and 5% CO2.
Compound Loading Buffer (2× concentration): Na/TMA Cl Bath1 Buffer containing HS (omitted in experiments run in the absence of human serum (HS)) 50%, VABSC-1 1 mM, BSA 0.2 mg/ml (in Bath-1), KCl 9 mM, DMSO 0.75%.
• 1) To reach the final concentration in each well, 400 nL of each compound was pre-spotted (in neat DMSO) into polypropylene compound plates at 250× desired final concentration from an intermediate stock concentration of 0.075 mM, in an 11 point dose response, 3-fold dilution, resulting in a top dose of 300 nM final concentration in the cell plate. Vehicle control (neat DMSO), and positive control (an established NaV1.8 inhibitor, 25 μM final in assay in DMSO) were added manually to the outermost columns of each plate respectively. The compound plate was backfilled with 45 μL per well of Compound Loading Buffer resulting in a 250 fold dilution of compound following a 1:1 transfer of compound into the cell plate (see Step 6). Final DMSO concentration for all wells in the assay was 0.625% (0.75% DMSO was supplemented to the Compound Loading Buffer for a final DMSO concentration of 0.625%). This assay dilution protocol was adjusted to enable a higher dose range to be tested in the presence of HS or if the final assay volume was altered. • 2) Hexyl Dye Solution was prepared. • 3) Cell plates were prepared. On the day of the assay, the media was aspirated, and the cells were washed three times with 80 μL of Bath-1 buffer, maintaining 25 μL residual volume in each well. • 4) 25 μL per well of Hexyl Dye Solution was dispensed into the cell plates. The cells were incubated for 20 minutes at room temperature or ambient conditions in darkness. • 5) 45 μL per well of Compound Loading Buffer was dispensed into compound plates. • 6) The cell plates were washed three times with 80 μL per well of Bath-1 Buffer, leaving 25 µL of residual volume. Then 25 μL per well from compound plate was transferred to each cell plate. The mixture was incubated for 30 minutes at room temperature/ambient conditions. • 7) The cell plate containing compound was read on E-VIPR using the current-controlled amplifier to deliver stimulation wave pulses using a symmetrical biphasic waveform. […]

Sequence of human NaV 1.8 (Q9Y5Y9 whole entry, looked up, the tested form may be a part): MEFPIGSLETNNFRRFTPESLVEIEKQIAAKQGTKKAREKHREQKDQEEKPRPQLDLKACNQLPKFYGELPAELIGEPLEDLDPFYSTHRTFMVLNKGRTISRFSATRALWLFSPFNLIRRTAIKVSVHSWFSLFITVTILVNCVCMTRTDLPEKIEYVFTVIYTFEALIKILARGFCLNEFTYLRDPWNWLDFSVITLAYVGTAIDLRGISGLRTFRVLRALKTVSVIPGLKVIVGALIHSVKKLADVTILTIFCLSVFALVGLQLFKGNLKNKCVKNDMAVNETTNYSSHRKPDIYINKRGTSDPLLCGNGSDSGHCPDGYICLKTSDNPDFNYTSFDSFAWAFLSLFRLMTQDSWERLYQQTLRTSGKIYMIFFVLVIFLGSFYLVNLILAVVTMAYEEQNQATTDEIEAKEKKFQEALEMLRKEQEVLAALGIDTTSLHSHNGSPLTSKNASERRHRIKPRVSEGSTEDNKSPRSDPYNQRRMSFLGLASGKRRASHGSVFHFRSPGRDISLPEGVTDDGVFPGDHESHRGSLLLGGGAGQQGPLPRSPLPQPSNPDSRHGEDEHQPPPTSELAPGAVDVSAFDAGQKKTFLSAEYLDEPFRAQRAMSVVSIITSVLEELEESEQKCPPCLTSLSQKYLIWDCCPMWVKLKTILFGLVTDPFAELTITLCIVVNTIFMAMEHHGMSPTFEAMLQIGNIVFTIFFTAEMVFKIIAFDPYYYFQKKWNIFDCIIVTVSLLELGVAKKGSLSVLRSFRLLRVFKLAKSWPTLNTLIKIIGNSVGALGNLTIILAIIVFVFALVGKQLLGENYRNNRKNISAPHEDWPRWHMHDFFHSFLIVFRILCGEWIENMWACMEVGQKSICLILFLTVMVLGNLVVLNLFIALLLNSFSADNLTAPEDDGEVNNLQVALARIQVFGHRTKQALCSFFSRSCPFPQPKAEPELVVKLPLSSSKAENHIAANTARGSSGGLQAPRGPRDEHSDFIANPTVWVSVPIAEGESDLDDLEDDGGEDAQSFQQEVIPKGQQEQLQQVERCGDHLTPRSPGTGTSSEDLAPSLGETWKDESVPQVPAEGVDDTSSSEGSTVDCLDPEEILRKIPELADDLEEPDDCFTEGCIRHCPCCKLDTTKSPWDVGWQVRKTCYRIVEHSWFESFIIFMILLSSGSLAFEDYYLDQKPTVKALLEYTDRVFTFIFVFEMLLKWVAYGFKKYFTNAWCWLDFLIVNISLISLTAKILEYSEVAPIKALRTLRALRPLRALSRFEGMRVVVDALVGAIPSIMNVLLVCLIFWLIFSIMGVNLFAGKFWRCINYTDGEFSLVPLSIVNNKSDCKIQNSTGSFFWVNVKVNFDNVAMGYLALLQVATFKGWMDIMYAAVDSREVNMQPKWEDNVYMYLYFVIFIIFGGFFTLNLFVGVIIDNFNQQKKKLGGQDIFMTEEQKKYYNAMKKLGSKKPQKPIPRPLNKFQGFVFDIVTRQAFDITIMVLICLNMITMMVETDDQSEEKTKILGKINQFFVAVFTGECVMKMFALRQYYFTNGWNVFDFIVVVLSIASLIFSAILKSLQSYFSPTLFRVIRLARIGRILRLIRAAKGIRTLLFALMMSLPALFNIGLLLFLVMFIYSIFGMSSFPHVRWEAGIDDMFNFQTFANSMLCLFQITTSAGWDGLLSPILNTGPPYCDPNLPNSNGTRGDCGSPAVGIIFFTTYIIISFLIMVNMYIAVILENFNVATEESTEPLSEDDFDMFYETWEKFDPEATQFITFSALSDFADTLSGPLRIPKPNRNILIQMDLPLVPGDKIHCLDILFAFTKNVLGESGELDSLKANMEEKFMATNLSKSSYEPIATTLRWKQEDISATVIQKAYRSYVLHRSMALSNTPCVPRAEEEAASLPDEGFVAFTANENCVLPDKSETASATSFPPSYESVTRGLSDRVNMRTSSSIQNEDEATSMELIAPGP

IC50 [nM] | Molecule
960 | COc1cc(OC(F)(F)F)ccc1Oc1cc(C2CCC(C(F)(F)F)CC2)ccc1C(=O)Nc1ccnc(C(N)=O)c1 (single isomer, unassigned) [158 (first diastereomer), 4-[[2-[2-methoxy-4-(trifluoromethoxy)phenoxy]-4-[4-(trifluoromethyl)cyclohexyl]benzoyl]amino]pyridine-2-carboxamide]
395 | COc1cc(OC(F)(F)F)ccc1Oc1cc(C2CCC(C(F)(F)F)CC2)ccc1C(=O)Nc1ccnc(C(N)=O)c1 (single isomer, unassigned) [158 (second diastereomer), 4-[[2-[2-methoxy-4-(trifluoromethoxy)phenoxy]-4-[4-(trifluoromethyl)cyclohexyl]benzoyl]amino]pyridine-2-carboxamide]
18 | COc1cc(OC(F)(F)F)ccc1Oc1cc(C2CCC(C(F)(F)F)CC2)cc(F)c1C(=O)Nc1ccnc(C(N)=O)c1 (single isomer, unassigned) [168 (first diastereomer), 4-[[2-fluoro-6-[2-methoxy-4-(trifluoromethoxy)phenoxy]-4-[4-(trifluoromethyl)cyclohexyl]benzoyl]amino]pyridine-2-carboxamide]
10 | COc1cc(OC(F)(F)F)ccc1Oc1cc(C2CCC(C(F)(F)F)CC2)cc(F)c1C(=O)Nc1ccnc(C(N)=O)c1 (single isomer, unassigned) [168 (second diastereomer), 4-[[2-fluoro-6-[2-methoxy-4-(trifluoromethoxy)phenoxy]-4-[4-(trifluoromethyl)cyclohexyl]benzoyl]amino]pyridine-2-carboxamide]
11 | COc1cc(OC(F)(F)F)ccc1Oc1cc(C2CCC(C(C)(C)C)CC2)cc(F)c1C(=O)Nc1ccnc(C(N)=O)c1 (single isomer, unassigned) [169 (first diastereomer), 4-[[4-(4-tert-butylcyclohexyl)-2-fluoro-6-[2-methoxy-4-(trifluoromethoxy)phenoxy]benzoyl]amino]pyridine-2-carboxamide]
21 | COc1cc(OC(F)(F)F)ccc1Oc1cc(C2CCC(C(C)(C)C)CC2)cc(F)c1C(=O)Nc1ccnc(C(N)=O)c1 (single isomer, unassigned) [169 (second diastereomer), 4-[[4-(4-tert-butylcyclohexyl)-2-fluoro-6-[2-methoxy-4-(trifluoromethoxy)phenoxy]benzoyl]amino]pyridine-2-carboxamide]
252 | [2H]C([2H])([2H])Oc1cc(OC(F)(F)F)ccc1Oc1cc(C2CCC(OC)CC2)cc(F)c1C(=O)Nc1ccnc(C(N)=O)c1 (single isomer, unassigned) [1017 (first diastereomer), 4-[[2-fluoro-4-(4-methoxycyclohexyl)-6-[2-(trideuteriomethoxy)-4-(trifluoromethoxy)phenoxy]benzoyl]amino]pyridine-2-carboxamide]
17 | [2H]C([2H])([2H])Oc1cc(OC(F)(F)F)ccc1Oc1cc(C2CCC(OC)CC2)cc(F)c1C(=O)Nc1ccnc(C(N)=O)c1 (single isomer, unassigned) [1017 (second diastereomer), 4-[[2-fluoro-4-(4-methoxycyclohexyl)-6-[2-(trideuteriomethoxy)-4-(trifluoromethoxy)phenoxy]benzoyl]amino]pyridine-2-carboxamide]
524 | COc1cc(OC(F)(F)F)ccc1Oc1cc(C2CCC(OC)CC2)ccc1C(=O)Nc1ccnc(C(N)=O)c1 (single isomer, unassigned) [1032 (first diastereomer), 4-[[4-(4-methoxycyclohexyl)-2-[2-methoxy-4-(trifluoromethoxy)phenoxy]benzoyl]amino]pyridine-2-carboxamide]
1550 | COc1cc(OC(F)(F)F)ccc1Oc1cc(C2CCC(OC)CC2)ccc1C(=O)Nc1ccnc(C(N)=O)c1 (single isomer, unassigned) [1032 (second diastereomer), 4-[[4-(4-methoxycyclohexyl)-2-[2-methoxy-4-(trifluoromethoxy)phenoxy]benzoyl]amino]pyridine-2-carboxamide]
390 | COc1nc(Cl)ccc1Oc1ccc(C(F)(F)F)cc1C(=O)Nc1ccnc(C(N)=O)c1 [Compound 1, 4-[[2-[(6-Chloro-2-Methoxy-3-Pyridyl)Oxy]-5-(Trifluoromethyl)Benzoyl]Amino]Pyridine-2-Carboxamide]
450 | CC(C)Oc1ccc(Oc2ccc(C(F)(F)F)cc2C(=O)Nc2ccnc(C(N)=O)c2)cc1Cl [Compound 2, 4-[[2-(3-chloro-4-isopropoxy-phenoxy)-5-(trifluoromethyl)benzoyl]amino]pyridine-2-carboxamide]
1400 | Cc1cc(Oc2ccc(C(F)(F)F)cc2C(=O)Nc2ccnc(C(N)=O)c2)ccc1F [Compound 3, 4-[[2-(4-fluoro-3-methyl-phenoxy)-5-(trifluoromethyl)benzoyl]amino]pyridine-2-carboxamide]
650 | Cc1cc(F)ccc1Oc1ccc(C(F)(F)F)cc1C(=O)Nc1ccnc(C(N)=O)c1 [Compound 4, 4-[[2-(4-fluoro-2-methyl-phenoxy)-5-(trifluoromethyl)benzoyl]amino]pyridine-2-carboxamide]
1200 | NC(=O)c1cc(NC(=O)c2cc(C(F)(F)F)ccc2Oc2ccc(F)cc2Cl)ccn1 [Compound 5, 4-[[2-(2-chloro-4-fluoro-phenoxy)-5-(trifluoromethyl)benzoyl]amino]pyridine-2-carboxamide]
1700 | NC(=O)c1cc(NC(=O)c2cc(C(F)(F)F)ccc2Oc2ccc(F)c(F)c2)ccn1 [Compound 6, 4-[[2-(3,4-difluorophenoxy)-5-(trifluoromethyl)benzoyl]amino]pyridine-2-carboxamide]
660 | CC(C)Oc1ccc(Oc2ccc(C(F)(F)F)cc2C(=O)Nc2ccnc(C(N)=O)c2)cc1F [Compound 7, 4-[[2-(3-fluoro-4-isopropoxy-phenoxy)-5-(trifluoromethyl)benzoyl]amino]pyridine-2-carboxamide]
510 | COc1cc(F)ccc1Oc1ccc(C(F)(F)F)cc1C(=O)Nc1ccnc(C(N)=O)c1 [Compound 8, 4-[[2-(4-fluoro-2-methoxy-phenoxy)-5-(trifluoromethyl)benzoyl]amino]pyridine-2-carboxamide]
1300 | CC(C)Oc1ccc(Oc2ccc(C(F)(F)F)cc2C(=O)Nc2ccnc(C(N)=O)c2)cc1 [Compound 9, 4-[[2-(4-isopropoxyphenoxy)-5-(trifluoromethyl)benzoyl]amino]pyridine-2-carboxamide]
650 | NC(=O)c1cc(NC(=O)c2cc(C(F)(F)F)ccc2Oc2ccc(F)c3c2OCC3)ccn1 [Compound 10, 4-[[2-[(4-fluoro-2,3-dihydrobenzofuran-7-yl)oxy]-5-(trifluoromethyl)benzoyl]amino]pyridine-2-carboxamide]
1400 | NC(=O)c1cc(NC(=O)c2cc(C(F)(F)F)ccc2Oc2ccc(F)c(Cl)c2)ccn1 [Compound 11, 4-[[2-(3-chloro-4-fluoro-phenoxy)-5-(trifluoromethyl)benzoyl]amino]pyridine-2-carboxamide]
2100 | COc1c(F)cccc1Oc1ccc(C(F)(F)F)cc1C(=O)Nc1ccnc(C(N)=O)c1 [Compound 12, 4-[[2-(3-fluoro-2-methoxy-phenoxy)-5-(trifluoromethyl)benzoyl]amino]pyridine-2-carboxamide]
> 3000 | NC(=O)c1cc(NC(=O)c2cc(C(F)(F)F)ccc2Oc2ccc(OC3CCCCC3)cc2)ccn1 [Compound 13, 4-[[2-[4-(cyclohexoxy)phenoxy]-5-(trifluoromethyl)benzoyl]amino]pyridine-2-carboxamide]

Molecule | IC50 [nM]
4-[[2-(4-fluoro-2-methoxy-phenyl)-4-(trifluoromethyl)benzoyl]amino]pyridine-2-carboxamide [Compound 175] | > 3000
